Eleven compounds from patent publication US20250313572A1, “MACROCYCLIC MCL-1 INHIBITORS AND METHODS OF USE” (AbbVie Inc., priority 2017, published 2025) can be followed below.

Read-outs that look alike come from different tables or passages of the source.

The subject of test [1] is NCI-H929 human multiple myeloma tumor cell line. Nature of the test: NCI-H929 cell viability assay (CellTiter-Glo, 24 hours). It counts as cell-based. The conditions noted are these: Homo sapiens, NCI-H929, 24 h, read-out: H929 Viability IC50 (μM, 10% FBS), 10% FBS, 24 hours of compound treatment.
The target in a further test is GST-MCL-1 (Homo sapiens, UniProt Q07820). Nature of the test: TR-FRET MCL-1 binding assay (competition with probe F-Bak). A digest of the protocol: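 Displacement of F-Bak from GST-MCL-1 is detected by time-resolved FRET with a Tb-labelled anti-GST antibody, with excitation 340/35 nm and emission 520/525 and 495/510 nm, after 2 hours at room temperature. Compounds were titrated in 11 three-fold steps starting at 25 μM final, in buffer alone or in 10% HS.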
Chain of GST-MCL-1 (Q07820 whole entry): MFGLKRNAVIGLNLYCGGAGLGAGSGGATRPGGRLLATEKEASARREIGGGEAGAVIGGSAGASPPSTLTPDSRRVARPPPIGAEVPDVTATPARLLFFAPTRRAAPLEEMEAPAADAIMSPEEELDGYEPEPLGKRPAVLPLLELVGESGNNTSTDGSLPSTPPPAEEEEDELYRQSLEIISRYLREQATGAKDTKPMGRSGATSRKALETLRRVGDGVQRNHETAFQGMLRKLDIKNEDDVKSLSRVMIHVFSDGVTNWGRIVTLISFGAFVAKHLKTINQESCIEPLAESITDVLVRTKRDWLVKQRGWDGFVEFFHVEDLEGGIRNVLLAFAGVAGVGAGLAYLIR

The test system of test [2] is AMO-1 human multiple myeloma tumor cell line. The test can be described thus: AMO-1 cell viability assay (CellTiter-Glo, 24 hours). In kind it is cell-based. The conditions noted are these: Homo sapiens, AMO1, 24 h, read-out: AMO-1 Viability IC50 (μM, 10% FBS), 10% FBS, 24 hours of compound treatment.
Where [3] appears, read: MCL-1 Binding Ki (nM, 10% HS), in the presence of 10% HS (human serum).
The mark [4] stands for this setting: without HS, read-out: MCL-1 Binding Ki.

As to `COCCOCCOCCOCC1(F)CC=C(c2nccc(COc3ccc4cc3C[C@H](C(=O)O)Oc3ncnc5sc(C6=CCCC6)c(c35)-c3c(C)c(Cl)c(c(Cl)c3C)O[C@H](CN3CCN(C)CC3)CO4)n2)CC1` (single isomer, unassigned) [Example 125, (7R,16R)-19,23-dichloro-1-(cyclopent-1-en-1-yl)-10-({2-[(4S*)-4-fluoro-4-(2,5,8,11-tetraoxadodecan-1-yl)cyclohex-1-en-1-yl]pyrimidin-4-yl}methoxy)-20,22-dimethyl-16-[(4-methylpiperazin-1-yl)methyl]-7,8,15,16-tetrahydro-18,21-etheno-13,9-(metheno)-6,14,17-trioxa-2-thia-3,5-diazacyclononadeca[1,2,3-cd]indene-7-carboxylic Acid], the results for the IC50 in test [1] and in test [2] were 0.00111 µM and 0.000288 µM, respectively. Further, the Ki at GST-MCL-1 (setting [3]) was 0.455 nM; at GST-MCL-1 (setting [4]) it was 0.037 nM.
The like results for `COCCOCCOCC1(F)CC=C(c2nccc(COc3ccc4cc3C[C@H](C(=O)O)Oc3ncnc5sc(C6CCC6)c(c35)-c3c(C)c(Cl)c(c(Cl)c3C)O[C@H](CN3CCN(C)CC3)CO4)n2)CC1` (single isomer, unassigned) [Example 130, (7R,16R)-19,23-dichloro-1-cyclobutyl-10-({2-[(4R*)-4-fluoro-4-{[2-(2-methoxyethoxy)ethoxy]methyl}cyclohex-1-en-1-yl]pyrimidin-4-yl}methoxy)-20,22-dimethyl-16-[(4-methylpiperazin-1-yl)methyl]-7,8,15,16-tetrahydro-18,21-etheno-13,9-(metheno)-6,14,17-trioxa-2-thia-3,5-diazacyclononadeca[1,2,3-cd]indene-7-carboxylic Acid] were, in that order, 0.000489 µM, 0.000309 µM, 1.74 nM and 0.026 nM.
For the compound `COc1ccccc1-c1nccc(COc2ccc3cc2C[C@H](C(=O)O)Oc2ncnc4sc(-c5ccc(F)cc5)c(c24)-c2ccc(c(Cl)c2C)O[C@H](CN2CCN(C[C@H]4O[C@H](OC)[C@@H](OC)[C@@H](OC)[C@@H]4OC)CC2)CO3)n1` [Example 6, methyl 6-(4-{[(7R,16R,21S)-7-carboxy-19-chloro-1-(4-fluorophenyl)-10-{[2-(2-methoxyphenyl)pyrimidin-4-yl]methoxy}-20-methyl-7,8,15,16-tetrahydro-18,21-etheno-13,9-(metheno)-6,14,17-trioxa-2-thia-3,5-diazacyclononadeca[1,2,3-cd]inden-16-yl]methyl}piperazin-1-yl)-6-deoxy-2,3,4-tri-O-methyl-a-D-mannopyranoside], the IC50 in test [1] is 0.024 µM; in test [2], 0.03 µM. Further, the Ki at GST-MCL-1 (setting [3]) amounted to 0.221 nM; at GST-MCL-1 (setting [4]), 0.014 nM.
The corresponding values for `CO[C@H]1O[C@H](COc2cccc(-c3nccc(COc4ccc5cc4C[C@H](C(=O)O)Oc4ncnc6sc(-c7ccc(F)cc7)c(c46)-c4ccc(c(Cl)c4C)O[C@H](CN4CCN(C)CC4)CO5)n3)c2)[C@@H](OC)[C@H](OC)[C@@H]1OC` [Example 7, methyl 6-O-{3-[4-({[(7R,16R,21S)-7-carboxy-19-chloro-1-(4-fluorophenyl)-20-methyl-16-[(4-methylpiperazin-1-yl)methyl]-7,8,15,16-tetrahydro-18,21-etheno-13,9-(metheno)-6,14,17-trioxa-2-thia-3,5-diazacyclononadeca[1,2,3-cd]inden-10-yl]oxy}methyl)pyrimidin-2-yl]phenyl}-2,3,4-tri-O-methyl-a-D-mannopyranoside] are 0.011 µM, 0.007 µM, 0.599 nM and 0.054 nM.
The like results for `CO[C@H]1O[C@H](COc2cccc(-c3nccc(COc4ccc5cc4C[C@@H](C(=O)O)Oc4ncnc6sc(-c7ccc(F)cc7)c(c46)-c4ccc(c(Cl)c4C)O[C@H](CN4CCN(C)CC4)CO5)n3)c2)[C@@H](OC)[C@H](OC)[C@@H]1OC` [Example 8, methyl 6-O-{3-[4-({[(7S,16R,21S)-7-carboxy-19-chloro-1-(4-fluorophenyl)-20-methyl-16-[(4-methylpiperazin-1-yl)methyl]-7,8,15,16-tetrahydro-18,21-etheno-13,9-(metheno)-6,14,17-trioxa-2-thia-3,5-diazacyclononadeca[1,2,3-cd]inden-10-yl]oxy}methyl)pyrimidin-2-yl]phenyl}-2,3,4-tri-O-methyl-a-D-mannopyranoside] were, in that order, 0.989 µM, 0.518 µM, 111 nM and 8.83 nM.
The corresponding values for `CO[C@H]1O[C@H](COc2ccc(-c3nccc(COc4ccc5cc4C[C@H](C(=O)O)Oc4ncnc6sc(-c7ccc(F)cc7)c(c46)-c4ccc(c(Cl)c4C)CN(CCN4CCN(C)CC4)C5)n3)cc2)[C@@H](O)[C@H](O)[C@H]1O` [Example 9, methyl 6-O-{4-[4-({[(7R,20S)-7-carboxy-18-chloro-1-(4-fluorophenyl)-19-methyl-15-[2-(4-methylpiperazin-1-yl)ethyl]-7,8,15,16-tetrahydro-14H-17,20-etheno-13,9-(metheno)-6-oxa-2-thia-3,5,15-triazacyclooctadeca[1,2,3-cd]inden-10-yl]oxy}methyl)pyrimidin-2-yl]phenyl}-a-D-glucopyranoside] are greater than 1 µM, 0.732 µM, 0.296 nM and 0.048 nM.
Take `CO[C@H]1O[C@H](COc2ccc(-c3nccc(COc4ccc5cc4C[C@H](C(=O)O)Oc4ncnc6sc(-c7ccc(F)cc7)c(c46)-c4ccc(c(Cl)c4C)CN(CCN4CCN(C)CC4)C5)n3)cc2)[C@@H](O)[C@H](O)[C@@H]1O` [Example 10, methyl 6-O-{4-[4-({[(7R,20S)-7-carboxy-18-chloro-1-(4-fluorophenyl)-19-methyl-15-[2-(4-methylpiperazin-1-yl)ethyl]-7,8,15,16-tetrahydro-14H-17,20-etheno-13,9-(metheno)-6-oxa-2-thia-3,5,15-triazacyclooctadeca[1,2,3-cd]inden-10-yl]oxy}methyl)pyrimidin-2-yl]phenyl}-a-D-mannopyranoside]: the IC50 in test [1] and in test [2] was greater than 1 µM in each case. In addition, the Ki at GST-MCL-1 (setting [3]) was determined as 0.494 nM; at GST-MCL-1 (setting [4]), 0.06 nM.
On to `CO[C@H]1O[C@H](COc2ccc(-c3nccc(COc4ccc5cc4C[C@H](C(=O)O)Oc4ncnc6sc(-c7ccc(F)cc7)c(c46)-c4ccc(c(Cl)c4C)CN(CCN4CCN(C)CC4)C5)n3)cc2)[C@@H](OC)[C@H](OC)[C@@H]1OC` [Example 11, methyl 6-O-{4-[4-({[(7R,20S)-7-carboxy-18-chloro-1-(4-fluorophenyl)-19-methyl-15-[2-(4-methylpiperazin-1-yl)ethyl]-7,8,15,16-tetrahydro-14H-17,20-etheno-13,9-(metheno)-6-oxa-2-thia-3,5,15-triazacyclooctadeca[1,2,3-cd]inden-10-yl]oxy}methyl)pyrimidin-2-yl]phenyl}-2,3,4-tri-O-methyl-a-D-mannopyranoside], for which the IC50 was determined as 0.514 µM in test [1] and 0.363 µM in test [2]. Besides, the Ki stood at 2.34 nM on GST-MCL-1 (setting [3]) and 0.374 nM on GST-MCL-1 (setting [4]).
The like results for `CO[C@H]1O[C@H](COc2ccc(-c3nccc(COc4ccc5cc4C[C@H](C(=O)O)Oc4ncnc6sc(-c7ccc(F)cc7)c(c46)-c4ccc(c(Cl)c4C)O[C@H](CN4CCN(C)CC4)CO5)n3)cc2)[C@@H](O)[C@H](O)[C@@H]1O` [Example 12, methyl 6-O-{4-[4-({[(7R,16R,21S)-7-carboxy-19-chloro-1-(4-fluorophenyl)-20-methyl-16-[(4-methylpiperazin-1-yl)methyl]-7,8,15,16-tetrahydro-18,21-etheno-13,9-(metheno)-6,14,17-trioxa-2-thia-3,5-diazacyclononadeca[1,2,3-cd]inden-10-yl]oxy}methyl)pyrimidin-2-yl]phenyl}-a-D-mannopyranoside] were, in that order, 0.0316 µM, 0.0187 µM, 0.227 nM and 0.603 nM.
Regarding `CO[C@H]1O[C@H](COc2ccc(-c3nccc(COc4ccc5cc4C[C@H](C(=O)O)Oc4ncnc6sc(-c7ccc(F)cc7)c(c46)-c4ccc(c(Cl)c4C)O[C@H](CN4CCN(C)CC4)CO5)n3)cc2)[C@@H](OC)[C@H](OC)[C@@H]1OC` [Example 14, methyl 6-O-{4-[4-({[(7R,16R,21S)-7-carboxy-19-chloro-1-(4-fluorophenyl)-20-methyl-16-[(4-methylpiperazin-1-yl)methyl]-7,8,15,16-tetrahydro-18,21-etheno-13,9-(metheno)-6,14,17-trioxa-2-thia-3,5-diazacyclononadeca[1,2,3-cd]inden-10-yl]oxy}methyl)pyrimidin-2-yl]phenyl}-2,3,4-tri-O-methyl-a-D-mannopyranoside], the IC50 came to 0.00258 µM in test [1] and 0.00154 µM in test [2]. Besides, the Ki stood at 0.547 nM at GST-MCL-1 (setting [3]) and 0.124 nM on GST-MCL-1 (setting [4]).
The corresponding values for `COCCOCCOCCOc1ccccc1-c1nccc(COc2ccc3cc2C[C@H](C(=O)O)Oc2ncnc4sc(-c5ccc(F)cc5)c(c24)-c2c(C)c(Cl)c(c(Cl)c2C)O[C@H](CN2CCN(C)CC2)CO3)n1` [Example 15, (7R,16R,21S)-19,23-dichloro-1-(4-fluorophenyl)-10-{[2-(2-{2-[2-(2-methoxyethoxy)ethoxy]ethoxy}phenyl)pyrimidin-4-yl]methoxy}-20,22-dimethyl-16-[(4-methylpiperazin-1-yl)methyl]-7,8,15,16-tetrahydro-18,21-etheno-9,13-(metheno)-6,14,17-trioxa-2-thia-3,5-diazacyclononadeca[1,2,3-cd]indene-7-carboxylic Acid] are 0.000751 µM, 0.000524 µM, 0.152 nM and 0.015 nM.
